ED50 data for 4 compounds are collected here from patent US4649160A, “Substituted phenoxy-aminopropanols” (Hoffmann-La Roche Inc., priority 1980, dated 1987).

For one assay, the target named is T1, β1-adrenoceptors (Rattus norvegicus, UniProt P18090).
T1 construct: measured in rats by determining the dosage in μg/kg i.v. of substance being tested; from tissue; host or cells: living rat (in vivo, i.v. dosing); heart rate response to isoprenaline
Nature of the assay: 50% reduction in isoprenaline-induced tachycardia in rats (β-blocking activity, heart rate). The format is in vivo. The note with it: iv, read-out: ED50 (HR).

The target in a further assay is T2, β2-adrenoceptors (Rattus norvegicus, UniProt P10608).
T2 construct: measured in rats by determining the dosage in μg/kg i.v. of substance being tested; from tissue; host or cells: living rat (in vivo, i.v. dosing); vascular depressor response to isoprenaline
T2 sequence (P10608 whole entry): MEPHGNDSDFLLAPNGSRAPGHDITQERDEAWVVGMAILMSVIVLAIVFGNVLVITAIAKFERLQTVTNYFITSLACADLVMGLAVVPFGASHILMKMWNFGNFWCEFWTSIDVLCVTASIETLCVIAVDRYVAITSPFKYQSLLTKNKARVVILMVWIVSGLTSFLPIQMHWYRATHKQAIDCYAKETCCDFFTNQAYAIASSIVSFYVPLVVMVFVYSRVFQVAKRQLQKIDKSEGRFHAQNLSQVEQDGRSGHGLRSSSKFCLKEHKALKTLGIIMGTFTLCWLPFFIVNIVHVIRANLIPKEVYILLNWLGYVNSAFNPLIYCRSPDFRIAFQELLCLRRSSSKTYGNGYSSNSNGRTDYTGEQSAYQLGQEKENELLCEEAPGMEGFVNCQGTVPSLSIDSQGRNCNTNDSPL
Put plainly: 50% reduction in isoprenaline-induced depressor responses in rats (β-blocking activity, blood pressure). The class given is in vivo. The following applies: iv, read-out: ED50 (BP).

Setting [1] is: rats, i.v., dosage for 50% reduction in isoprenaline-induced tachycardia.
The mark [2] stands for this setting: rats, i.v., dosage for 50% reduction in isoprenaline-induced depressor responses.

SMILES strings stand for the structures. Structures can show the parent of a compound that is named as a salt. Where two headings read alike, the source gives them in different places. A value given as a limit tells only on which side of the number the result lay.

Broadly, the ED50 is the dose at which the effect has come halfway, by size or by number of responders.

T1 sequence (P18090 whole entry): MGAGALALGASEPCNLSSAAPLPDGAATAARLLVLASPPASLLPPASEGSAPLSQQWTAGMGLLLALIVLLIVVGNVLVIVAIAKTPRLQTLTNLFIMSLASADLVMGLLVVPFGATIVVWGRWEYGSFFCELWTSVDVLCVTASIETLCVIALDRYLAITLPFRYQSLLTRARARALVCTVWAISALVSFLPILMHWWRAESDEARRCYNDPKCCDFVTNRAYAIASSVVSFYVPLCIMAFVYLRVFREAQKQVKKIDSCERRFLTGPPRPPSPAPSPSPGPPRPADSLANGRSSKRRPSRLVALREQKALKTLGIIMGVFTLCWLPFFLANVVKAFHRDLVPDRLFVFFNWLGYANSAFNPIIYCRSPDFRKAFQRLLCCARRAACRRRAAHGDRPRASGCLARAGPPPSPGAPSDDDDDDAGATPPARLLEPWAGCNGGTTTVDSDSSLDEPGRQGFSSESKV

Turning to `CC(C)NCC(O)COc1ccc(OCCOCCc2ccc(F)cc2)cc1` (centres unmarked) [1-[4-[2-(4-fluorophenethyloxy)-ethoxy]phenoxy]-3-isopropylamino-2-propanolhydrochloride], the ED50 on β1-adrenoceptors (setting [1]) was 0.003 mg/kg; on β2-adrenoceptors (setting [2]) it was over 2 mg/kg.

In the case of `CC(C)NCC(O)COc1ccc(OCCOCCc2ccccc2)cc1.Cl` (centres unmarked) [1-isopropylamino-3-[4-(2-phenethyloxyethoxy)phenoxy]-2-propanol hydrochloride], the ED50 at β1-adrenoceptors was 0.015 mg/kg; on β2-adrenoceptors, over 2 mg/kg.

Take `CC(C)(C)NCC(O)COc1ccc(OCCOCCc2ccccc2)cc1.Cl` (centres unmarked) [1-tert.butylamino-3-[4-(2-phenethyloxyethoxy)phenoxy]-2-propanol hydrochloride]: the ED50 at β1-adrenoceptors is 0.018 mg/kg; at β2-adrenoceptors, 0.979 mg/kg.

For `CC(C)NCC(O)COc1ccc(OCCOCCc2ccccc2)cc1Cl` (centres unmarked) [1-[2-chloro-4-[2-(phenethyloxy)ethoxy]phenoxy]-3-isopropylamino-2-propanolhydrochloride], the values for the median effective dose (ED50) at β1-adrenoceptors (setting [1]) and at β2-adrenoceptors (setting [2]) were 0.025 mg/kg and 0.834 mg/kg, respectively.
